In ChEMBL document CHEMBL5506055, “Hit-to-Lead Optimization of the Natural Product Oridonin as Novel NLRP3 Inflammasome Inhibitors with Potent Anti-Inflammation Activity” (J Med Chem, 2024):

Key:
[1] = biological target: NACHT, LRR and PYD domains-containing protein 3 (Mus musculus) (UniProt Q8R4B8); test: Inhibition of NLRP3 inflammasome activation in LPS/ATP-induced C57BL/6 mouse BMDMs assessed as reduction in IL-1beta secretion at 500 nM preincubated with LPS for 4 hrs followed by compound addition for 30 mins and further stimulated with ATP for 30 mins by ELISA relative to control; type: cell-based; conditions: BMDM, time 1.0 hrs
[2] = biological target: NACHT, LRR and PYD domains-containing protein 3 (Mus musculus) (UniProt Q8R4B8); test: Inhibition of NLRP3 inflammasome activation in LPS/ATP-induced C57BL/6 mouse BMDMs assessed as reduction in IL-1beta secretion at 200 nM preincubated with LPS for 4 hrs followed by compound addition for 30 mins and further stimulated with ATP for 30 mins by ELISA relative to control; type: cell-based; conditions: BMDM, time 1.0 hrs
[3] = biological target: NACHT, LRR and PYD domains-containing protein 3 (Mus musculus) (UniProt Q8R4B8); test: Inhibition of NLRP3 inflammasome activation in LPS/ATP-induced C57BL/6 mouse BMDMs assessed as reduction in IL-1beta secretion at 100 nM preincubated with LPS for 4 hrs followed by compound addition for 30 mins and further stimulated with ATP for 30 mins by ELISA relative to control; type: cell-based; conditions: BMDM, time 1.0 hrs
[4] = biological target: NACHT, LRR and PYD domains-containing protein 3 (Mus musculus, UniProt Q8R4B8); test: Inhibition of NLRP3 inflammasome activation in LPS/ATP-induced C57BL/6 mouse BMDMs assessed as reduction in IL-1beta secretion preincubated with LPS for 4 hrs followed by compound addition for 30 mins and further stimulated with ATP for 30 mins by ELISA; type: cell-based, BMDM
hERG (KCNH2) = hERG (KCNH2) (Homo sapiens, UniProt Q12809); test: Inhibition of human ERG expressed in CHO cells at 40 uM relative to control; type: toxicity, cell-based; conditions: CHO cells that express human ERG
hERG (KCNH2), sequence (Q12809 whole entry): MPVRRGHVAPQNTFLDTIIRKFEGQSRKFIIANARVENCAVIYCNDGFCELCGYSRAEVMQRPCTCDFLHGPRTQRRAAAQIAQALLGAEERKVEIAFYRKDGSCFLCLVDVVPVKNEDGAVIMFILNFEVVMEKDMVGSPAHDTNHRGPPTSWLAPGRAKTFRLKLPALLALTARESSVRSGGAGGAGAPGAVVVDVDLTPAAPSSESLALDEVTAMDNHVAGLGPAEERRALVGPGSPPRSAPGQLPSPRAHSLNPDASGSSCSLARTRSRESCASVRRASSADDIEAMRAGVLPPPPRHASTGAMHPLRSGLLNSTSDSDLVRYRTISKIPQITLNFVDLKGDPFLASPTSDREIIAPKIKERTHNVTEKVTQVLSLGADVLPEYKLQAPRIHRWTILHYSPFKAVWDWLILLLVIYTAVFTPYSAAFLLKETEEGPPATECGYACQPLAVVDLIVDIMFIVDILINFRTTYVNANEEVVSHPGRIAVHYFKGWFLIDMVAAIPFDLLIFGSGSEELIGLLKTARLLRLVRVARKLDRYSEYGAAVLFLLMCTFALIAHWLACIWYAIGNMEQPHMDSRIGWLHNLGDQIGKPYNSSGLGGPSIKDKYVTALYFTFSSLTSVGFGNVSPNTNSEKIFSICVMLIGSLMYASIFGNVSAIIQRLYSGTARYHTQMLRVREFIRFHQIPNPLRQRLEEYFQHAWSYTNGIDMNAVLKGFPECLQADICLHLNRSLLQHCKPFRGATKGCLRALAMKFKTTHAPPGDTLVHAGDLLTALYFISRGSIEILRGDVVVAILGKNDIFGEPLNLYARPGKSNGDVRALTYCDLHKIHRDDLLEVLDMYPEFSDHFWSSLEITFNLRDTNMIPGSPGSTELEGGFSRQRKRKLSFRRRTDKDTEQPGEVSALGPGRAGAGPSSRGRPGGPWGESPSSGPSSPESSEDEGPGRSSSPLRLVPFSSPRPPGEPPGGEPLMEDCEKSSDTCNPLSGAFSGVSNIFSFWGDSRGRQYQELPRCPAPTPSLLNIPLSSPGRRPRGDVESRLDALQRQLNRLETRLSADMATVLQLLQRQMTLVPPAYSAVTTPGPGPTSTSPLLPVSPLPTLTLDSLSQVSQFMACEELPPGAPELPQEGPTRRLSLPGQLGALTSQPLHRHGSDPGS

NACHT, LRR and PYD domains-containing protein 3 (Mus musculus), sequence (Q8R4B8 whole entry, the tested form may be a part): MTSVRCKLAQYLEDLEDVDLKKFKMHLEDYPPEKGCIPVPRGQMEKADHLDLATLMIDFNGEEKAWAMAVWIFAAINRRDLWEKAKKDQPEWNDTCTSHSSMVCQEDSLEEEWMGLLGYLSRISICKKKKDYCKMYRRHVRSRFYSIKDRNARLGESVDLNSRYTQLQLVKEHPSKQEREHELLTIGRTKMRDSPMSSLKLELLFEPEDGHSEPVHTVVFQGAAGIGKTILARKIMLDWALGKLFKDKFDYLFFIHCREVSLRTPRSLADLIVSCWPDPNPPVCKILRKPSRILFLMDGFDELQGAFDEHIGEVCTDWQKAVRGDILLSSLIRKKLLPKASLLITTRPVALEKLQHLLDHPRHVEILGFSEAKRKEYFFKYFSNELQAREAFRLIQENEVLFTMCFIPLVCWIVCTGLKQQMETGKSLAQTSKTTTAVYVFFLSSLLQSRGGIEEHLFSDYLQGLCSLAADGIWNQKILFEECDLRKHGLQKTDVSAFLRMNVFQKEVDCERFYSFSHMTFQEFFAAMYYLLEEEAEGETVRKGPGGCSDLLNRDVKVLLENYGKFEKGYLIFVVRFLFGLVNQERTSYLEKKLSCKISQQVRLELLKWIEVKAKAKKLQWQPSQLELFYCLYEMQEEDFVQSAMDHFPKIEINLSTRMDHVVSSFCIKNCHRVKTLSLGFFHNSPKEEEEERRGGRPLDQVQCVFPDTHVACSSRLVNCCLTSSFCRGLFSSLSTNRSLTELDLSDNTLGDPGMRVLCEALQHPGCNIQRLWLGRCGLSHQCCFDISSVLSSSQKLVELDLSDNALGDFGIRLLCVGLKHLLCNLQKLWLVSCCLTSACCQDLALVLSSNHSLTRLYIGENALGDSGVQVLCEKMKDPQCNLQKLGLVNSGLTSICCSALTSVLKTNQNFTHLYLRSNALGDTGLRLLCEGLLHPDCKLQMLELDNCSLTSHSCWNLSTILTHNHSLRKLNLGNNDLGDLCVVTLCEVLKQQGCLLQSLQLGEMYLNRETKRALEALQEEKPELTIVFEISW
NACHT, LRR and PYD domains-containing protein 3, sequence (Q8R4B8 whole entry, the tested form may be a part): as above

| SMILES | inhibition [1] [%] | inhibition [2] [%] | inhibition [3] [%] | IC50 [4] [nM] | inhibition at 40 µM (hERG (KCNH2)) [%] |
| --- | --- | --- | --- | --- | --- |
| C=C1C(=O)[C@]23[C@H](O)[C@H]1CC[C@H]2[C@]12C=CCC(C)(C)[C@H]1[C@H](O)[C@@]3(OCCCc1ccccc1)OC2 | 66.6 | 48.4 | 24 | – | – |
| C=C1C(=O)[C@]23[C@H](OCc4ccccc4)[C@H]1CC[C@H]2[C@]12C=CCC(C)(C)[C@H]1[C@H](O)[C@@]3(O)OC2 | 85.5 | 68 | 45.1 | – | – |
| C=C1C(=O)[C@]23[C@H](O)[C@H]1CC[C@H]2[C@]12C=CCC(C)(C)[C@H]1[C@H](O)[C@@]3(OCc1ccc(C#N)cc1)OC2 | 89.2 | 64.7 | 38.8 | – | – |
| C=C1C(=O)[C@]23[C@H](O)[C@H]1CC[C@H]2[C@]12C=CCC(C)(C)[C@H]1[C@H](O)[C@@]3(OCC(=O)O)OC2 | 55.4 | 25.5 | 12.9 | 406 | – |
| C=C1C(=O)[C@]23[C@H](O)[C@H]1CC[C@H]2[C@]12C=CCC(C)(C)[C@H]1[C@H](O)[C@@]3(OCCCc1ccc(Cl)cc1)OC2 | 65 | 47.8 | 7.3 | – | – |
| C=C1C(=O)[C@]23[C@H](O)[C@H]1CC[C@H]2[C@]12C=CCC(C)(C)[C@H]1[C@H](O)[C@@]3(OCc1ccncc1)OC2 | 77.3 | 56 | 47.3 | 100 | – |
| C=C1C(=O)[C@]23[C@H](OCc4ccc(C#N)cc4)[C@H]1CC[C@H]2[C@]12C=CCC(C)(C)[C@H]1[C@H](O)[C@@]3(O)OC2 | 86.6 | 69.6 | 31.1 | – | – |
| C=C1C(=O)[C@]23[C@H](O)[C@H]1CC[C@H]2[C@]12C=CCC(C)(C)[C@H]1[C@H](O)[C@@]3(OCCC(=O)NC1CCCCC1)OC2 | 74.1 | 40.6 | 36.5 | 194 | – |
| C=C1C(=O)[C@]23[C@H](O)[C@H]1CC[C@H]2[C@]12C=CCC(C)(C)[C@H]1[C@H](O)[C@@]3(OCCC(=O)NC1CCCC1)OC2 | 84.7 | 56 | 42.3 | 137 | – |
| C=C1C(=O)[C@]23[C@H](O)[C@H]1CC[C@H]2[C@]12C=CCC(C)(C)[C@H]1[C@H](O)[C@@]3(OCCC(=O)N1CCCC1)OC2 | 79.1 | 55.9 | 36.4 | 161 | – |
| C=C1C(=O)[C@]23[C@H](O)[C@H]1CC[C@H]2[C@]12C=CCC(C)(C)[C@H]1[C@H](O)[C@@]3(O)OC2 | 64.3 | 45.3 | 30.3 | – | – |
| C=C1C(=O)[C@]23[C@H](OCc4ccc(Cl)cc4)[C@H]1CC[C@H]2[C@]12C=CCC(C)(C)[C@H]1[C@H](O)[C@@]3(O)OC2 | 72.4 | 58.7 | 44.8 | – | – |
| C=C1C(=O)[C@]23[C@H](O)[C@H]1CC[C@H]2[C@]12C=CCC(C)(C)[C@H]1[C@H](O)[C@@]3(OCc1cocn1)OC2 | 96.5 | 78.8 | 44.2 | 97.1 | – |
| C=CCNC(=O)CCO[C@@]12OC[C@]3(C=CCC(C)(C)[C@H]3[C@@H]1O)[C@@H]1CC[C@H]3C(=C)C(=O)[C@]12[C@@H]3O | 93.7 | 62.1 | 52.6 | 102 | – |
| C=C1C(=O)[C@]23[C@H](O)[C@H]1CC[C@H]2[C@@]12CO[C@]3(O)[C@@H](O)[C@@H]1C(C)(C)CC[C@@H]2O [ORIDONIN] | 41.2 | 14.3 | 0.2 | 780 | – |
| C=C1C(=O)[C@]23[C@H](O)[C@H]1CC[C@H]2[C@]12C=CCC(C)(C)[C@H]1[C@H](O)[C@@]3(OCCC(=O)N1CCCCC1)OC2 | 82.1 | 52.4 | 43.7 | 147 | – |
| C=C1C(=O)[C@]23[C@H](O)[C@H]1CC[C@H]2[C@]12C=CCC(C)(C)[C@H]1[C@H](O)[C@@]3(OCCC(=O)NC(C)C)OC2 | 84.8 | 63.6 | 56.2 | 90.6 | – |
| C=C1C(=O)[C@]23[C@H](O)[C@H]1CC[C@H]2[C@]12C=CCC(C)(C)[C@H]1[C@H](O)[C@@]3(OCc1nccs1)OC2 | 63.2 | 56.7 | 46.2 | 1890 | – |
| C=C1C(=O)[C@]23[C@H](O)[C@H]1CC[C@H]2[C@]12C=CCC(C)(C)[C@H]1[C@H](O)[C@@]3(OCc1ccccc1)OC2 | 88.1 | 70.1 | 42.5 | – | – |

| SMILES | inhibition [1] [%] | inhibition [2] [%] | inhibition [3] [%] | IC50 [4] [nM] | inhibition at 40 µM (hERG (KCNH2)) [%] |
| --- | --- | --- | --- | --- | --- |
| C=C1C(=O)[C@]23[C@H](O)[C@H]1CC[C@H]2[C@]12C=CCC(C)(C)[C@H]1[C@H](O)[C@@]3(OCCC(=O)N1CCN(C)CC1)OC2 | 85.3 | 60.3 | 45 | 98.5 | – |
| C=C1C(=O)[C@]23[C@H](O)[C@H]1CC[C@H]2[C@]12C=CCC(C)(C)[C@H]1[C@H](O)[C@@]3(OCCC(=O)NC)OC2 | 76.7 | 43.1 | 27.2 | 216 | – |
| C=C1C(=O)[C@]23[C@H](O)[C@H]1CC[C@H]2[C@]12C=CCC(C)(C)[C@H]1[C@H](O)[C@@]3(OCCC(=O)NCCOC)OC2 | 69.9 | 49 | 18 | 286 | – |
| C=C1C(=O)[C@]23[C@H](O)[C@H]1CC[C@H]2[C@]12C=CCC(C)(C)[C@H]1[C@H](O)[C@@]3(OCCC(=O)NCC(C)C)OC2 | 79.1 | 59.9 | 40.7 | 137 | – |
| C=C1C(=O)[C@]23[C@H](O)[C@H]1CC[C@H]2[C@]12C=CCC(C)(C)[C@H]1[C@H](O)[C@@]3(OCCC(=O)N(CCC)CCC)OC2 | 71.6 | 67.4 | 25.4 | 178 | – |
| C=C1C(=O)[C@]23[C@H](O)[C@H]1CC[C@H]2[C@]12C=CCC(C)(C)[C@H]1[C@H](O)[C@@]3(OCCC(=O)NC1CCOCC1)OC2 | 66.2 | 36.4 | 18.5 | 292 | – |
| C=C1C(=O)[C@]23[C@H](O)[C@H]1CC[C@H]2[C@]12C=CCC(C)(C)[C@H]1[C@H](O)[C@@]3(OCc1ccc(Cl)cc1)OC2 | 75.5 | 63.3 | 40.5 | – | – |
| C=C1C(=O)[C@]23[C@H](O)[C@H]1CC[C@H]2[C@]12C=CCC(C)(C)[C@H]1[C@H](O)[C@@]3(OCCC(=O)NCCC)OC2 | 60 | 47.2 | 20.3 | 283 | – |
| C=C1C(=O)[C@]23[C@H](O)[C@H]1CC[C@H]2[C@]12C=CCC(C)(C)[C@H]1[C@H](O)[C@@]3(OCc1nc(-c3ccccc3)cs1)OC2 | 93.9 | 79.6 | 60.9 | 80.5 | – |
| C=C1C(=O)[C@]23[C@H](O)[C@H]1CC[C@H]2[C@]12C=CCC(C)(C)[C@H]1[C@H](O)[C@@]3(OCCC(=O)NC1CC1)OC2 | 65.1 | 38 | 33.3 | 242 | – |
| C=C1C(=O)[C@]23[C@H](OCc4ccc5ccccc5c4)[C@H]1CC[C@H]2[C@]12C=CCC(C)(C)[C@H]1[C@H](O)[C@@]3(O)OC2 | 71.4 | 50.2 | 33.1 | – | – |
| C=C1C(=O)[C@]23[C@H](O)[C@H]1CC[C@H]2[C@]12C=CCC(C)(C)[C@H]1[C@H](O)[C@@]3(OCC)OC2 | 66.1 | 46.5 | 31.3 | – | – |
| C=C1C(=O)[C@]23[C@H](O)[C@H]1CC[C@H]2[C@]12C=CCC(C)(C)[C@H]1[C@H](O)[C@@]3(OCCCC(=O)O)OC2 | 83 | 68.7 | 57.1 | 81.7 | – |
| C=C1C(=O)[C@]23[C@H](O)[C@H]1CC[C@H]2[C@]12C=CCC(C)(C)[C@H]1[C@H](O)[C@@]3(OCCCCCc1ccccc1)OC2 | 63.1 | 44.6 | 13.3 | – | – |
| C=C1C(=O)[C@]23[C@H](O)[C@H]1CC[C@H]2[C@]12C=CCC(C)(C)[C@H]1[C@H](O)[C@@]3(OCCC(=O)N(C)C)OC2 | 89 | 78.2 | 56.7 | 103 | – |
| C=C1C(=O)[C@]23[C@H](O)[C@H]1CC[C@H]2[C@]12C=CCC(C)(C)[C@H]1[C@H](O)[C@@]3(OCc1ccc3ccccc3c1)OC2 | 85.7 | 47.5 | 35.2 | – | – |
| C=C1C(=O)[C@]23[C@H](O)[C@H]1CC[C@H]2[C@]12C=CCC(C)(C)[C@H]1[C@H](O)C3(OCc1cccnc1)OC2 (single isomer, unassigned) | 68.4 | 44.5 | 24.5 | 232 | – |
| C=C1C(=O)[C@]23[C@H](O)[C@H]1CC[C@H]2[C@]12C=CCC(C)(C)[C@H]1[C@H](O)[C@@]3(OCc1cnco1)OC2 | 89.5 | 83 | 50.6 | 99.3 | – |
| COc1cc(N)c(Cl)cc1C(=O)NC1CCN(CCCOc2ccc(F)cc2)CC1OC (stereo unspecified) [CISAPRIDE] | – | – | – | – | 98.7 |
